Results: patent US11098095B1, “Methods of inhibiting MMP-9” (DASMAN DIABETES INSTITUTE, priority 2020, dated 2021)

What was measured:
Type in all cases: cell-based
[1] = tested on: MMP-9 protein secretion by monocytes (THP-1 cells) and macrophages; test: MMP-9 secreted protein in culture supernatants by sandwich ELISA; conditions: for cross-talk effect of IL-6 and TNF-α stimulation on the secretion of MMP-9 by monocytes: then IL-6/TNF-α for 24 hr; for crosstalk effect of IL-6 on TNF-α's enhancement of MMP-9 expression and secretion: summary statement, concentration not given; for MMP-9 protein secretion levels: monocytes and macrophages, stimulated 24 hr, FIGS. 2A-2B
Description: Monocytes (THP-1 cells and macrophages were cultured in 12-well plates (Costar, Corning Incorporated, Corning, N.Y., USA) at a cell density of 1/10^6 cells/well. Cells were pre-incubated with gp130 inhibitor (SC-144, 1.5 μM) or JAK2 inhibitor (AG-490, 30 μM) for 1 hour and then stimulated with IL-6 or TNF-α or IL-6/TNF-α for 24 hr at 37° C. (with humidity) in 5% CO2. Control cells were incubated with culture media only. Culture media and cells were harvested and MMP9 mRNA and protein expression levels were assessed by real-time PCR (RT-PCR) and ELISA. MMP-9 secreted protein in the supernatants of monocytes and macrophages stimulated with IL-6, TNF-α, or IL-6 and TNF-α was quantified using sandwich ELISA following the manufacturers instructions (SMP900, R&D systems, Minneapolis, USA). As illustrated in FIGS. 2A-2B. […] As illustrated in FIGS. 3A-3B, this robust cross-talk effect of IL-6 and TNF-α stimulation on the secretion of MMP-9 by monocytes may be extinguished by administration of either a JAK2 inhibitor AG-490, See FIG. 3A) or a gp130 inhibitor (SC-144, See FIG. 3B).

[2] = tested on: MMP-9 proteolytic activity in conditioned media of THP-1 cells; test: MMP9 proteolytic activity measured using gelatin zymography; conditions: monocytes (THP-1), 24 hours incubation
Description: THP-1 cells were incubated with TNF-α and IL-6. After incubation for 24 hours, conditioned media were collected and mixed with Zymogram sample buffer (BioRad; 62.5 mM Tris-HCl, pH.6.8, 25% glycerol, 4% SDS and 0.01% bromophenol blue) and then loaded on to a 10% polyacrylamide gel with gelatin (10% Ready Gel Zymogram Gel, BioRad) for electrophoresis. The gel was incubated with renaturing buffer BioRad (2.5% Triton X-100) for 1 hour at room temperature and Incubated with zonogram developing buffer.

[3] = tested on: MMP-9 mRNA expression in monocytes (THP-1 cells) and macrophages; test: MMP-9 mRNA expression by real-time PCR (RT-PCR); conditions: stimulated 24 hr, FIGS. 1A and 1B
Description: Monocytes (THP-1 cells and macrophages were cultured in 12-well plates (Costar, Corning Incorporated, Corning, N.Y., USA) at a cell density of 1/10^6 cells/well. Cells were pre-incubated with gp130 inhibitor (SC-144, 1.5 μM) or JAK2 inhibitor (AG-490, 30 μM) for 1 hour and then stimulated with IL-6 or TNF-α or IL-6/TNF-α for 24 hr at 37° C. (with humidity) in 5% CO2. Control cells were incubated with culture media only. Culture media and cells were harvested and MMP9 mRNA and protein expression levels were assessed by real-time PCR (RT-PCR) and ELISA.
Total RNA was extracted using RNeasy Mini Kit (Qiagen, Valencia, Calif.; USA). […] For RT-PCR, cDNA template (50 ng) was amplified using inventoried TaqMan Gene Expression Assay products (MMP-9; Hs00234579_m1; GAPDH; Bs0392909_g1; containing two gene-specific printers and one TaqMan MGB probe (6-FAM dye-labeled) with a TaqMan Gene Expression Master Mix (Applied Biosystems, Foster City, Calif., USA) and a 7500 Fast Real-Time PCR System (Applied Biosystems, Foster City, Calif., USA). The mRNA levels were normalized against GAPDH mRNA and MMP-9 mRNA expression relative to control was calculated using the 2^−ΔΔCt-method. Relative mRNA expression is shown as told expression over average of control gene expression. […] The results were analyzed statistically and P<0.05 was considered significant.

Compound	cross-talk effect of IL-6 and TNF-α stimulation on the secretion of MMP-9 by monocytes ([1]; SC-144 1.5 μM pre-incubated 1 hour, FIG. 3B)	crosstalk effect of IL-6 on TNF-α's enhancement of MMP-9 expression and secretion [1]	MMP-9 protein secretion levels [1]	MMP-9 proteolytic activity [2]	MMP-9 mRNA expression relative to control [3]	cross-talk effect of IL-6 and TNF-α stimulation on the secretion of MMP-9 by monocytes ([1]; AG-490 30 μM pre-incubated 1 hour, FIG. 3A)
O=C(NNc1nc2cc(F)ccc2n2cccc12)c1cnccn1 [SC-144]	extinguished	suppress				
tumor necrosis factor alpha [TNF-α]			increased	lesser	increase	
N#C/C(=C\c1ccc(O)c(O)c1)C(=O)NCc1ccccc1 [AG490]		suppress				extinguished
interleukin-6 [IL-6]			minimally effected	minimal		
